# Patent US20080076772A1, “Anti-Inflammatory Agents” (Pharma Mar S.A. Sociedad Unipersonal, priority 2004, published 2008)
# Experiments:
# TNF = TNF production by LPS-stimulated TAM (ELISA); assay type: cell-based, human; conditions: LPS 100 ng/ml, 16 h incubation, up to 10 nM
# Description: (§1) Monocytes, macrophages and TAM were stimulated with 100 ng/ml LPS to induce maximal cytokine production. Determination of cytokines CCL2, TNF and IL-6 was measured by specific ELISA following the manufacturer's instructions.
# To verify whether the inhibitory effect of ecteinascidin 743 on cytokine production was at the transcriptional level, we analyzed mRNA of CCL2 and TNF from LPS-stimulated macrophages by real time-PCR of CCL2 and TNF transcripts in LPS-stimulated monocytes exposed to ecteinascidin 743.
# CCL2 = CCL2 production by LPS-stimulated in vitro differentiated macrophages (ELISA); assay type: cell-based; conditions: Homo sapiens, Macrophage; 5 nM, LPS 100 ng/ml, 16 h, n=5
# Description: as §1, with “Supernatants of untreated cells or cells treated with ecteinascidin 743 or other anti-neoplastic agents were collected after 24 h culture and frozen. Monocytes,” for “Monocytes,”
# Monocytes and in vitro differentiated macrophages were stimulated with LPS (100 ng/ml). After 1 h LPS stimulation they were treated with ecteinascidin 743. After 16 h incubation, cell supernatants were harvested and tested in ELISA. Under these treatment conditions cell viability was usually >85% for concentrations up to 5 nM. […] Mean inhibition at 5 nM, for monocytes, was 65% (range 50-80%, n=5) and was 50% (range 25-75%, n=5) for in vitro differentiated macrophages. Results are mean+/−SE of 3-5 experiments
# [1] = test system: macrophage differentiation; assay: In vivo treatment of tumour patients, in vitro differentiation of their monocytes to macrophages; parameters: species or system human; % inhibition of macrophage differentiation referred to cells before infusion: concentration or dose not given beside the values; conditions: for Absolute numbers of marker positive macrophages/10,000 cells, Exposure to ecteinascidin 743: end of 3-h infusion, 5 days M-CSF
# Description: Expression of cell membrane markers was performed by immunofluoresce and analyzed by Flow Cytometry. Cells were incubated with anti-CD14, anti-CD16, anti-CD68, anti-CD206 (mannose receptor) and then with FITC-goat anti-mouse Ig as described. At least 10,000 cells were analyzed.
# Patients with sarcoma or ovarian cancer undergoing Phase II trial with ecteinascidin 743, were admitted to the European Oncology institute, Milano, Italy. Patients received ecteinascidin 743 ([…]) in a 3-h infusion. Blood samples (40 ml) were collected immediately before the treatment and at the end of the infusion (+3 h). Blood samples were immediately processed and Percoll purified monocytes (usually 10^6 cells) were cultured with M-CSF (20 ng/ml) for 5 days. Differentiated cells were harvested, counted and analyzed for phenotype expression, as described above. Results are presented as absolute numbers of marker-positive cells/10,000 cells.
# To validate the above in vitro findings we tested whether the in vivo administration of ecteinascidin 743 in tumour patients could have measurable effects on monocyte viability and capacity to macrophage differentiation in vitro. A phase II trial with ecteinascidin 743 is currently underway in advanced ovarian adenocarcinoma patients who had failed two different cycles of conventional cis-platin and taxol-based chemotherapy. Tumour patients selected for this study were treated with 1300 ug/ml/m2 of ecteinascidin 743. Blood samples from patients were drawn just before drug administration and at the end of a 3-hour infusion. Purified monocytes were immediately isolated and cultured with M-CSF (20 ng/ml) for 5 days to induce macrophage differentiation and then analalyzed for phenotype expression. […] The data shown are the absolute numbers of marker positive cells for a total of 10,000 input cells.
# T lymphocytes = assay: Cell viability of purified T lymphocytes (PI staining, flow cytometry); assay type: cell-based, human; conditions: 48 h
# Description: Purified populations of human blood monocytes were prepared as previously described by differential density centrifugation on Ficoll and Percoll gradients (see Allavena, P., Piemonti, L., Longoni, D., Bernasconi, S., Stoppacciaro, A., Ruco, L., and Mantovani, A. IL-10 prevents the differentiation of monocytes to dendritic cells but promotes their maturation to macrophages. Eur J Immunol, 28: 359-369, 1998). […] Human thymocytes were isolated from resected thymus from pediatric patients undergoing surgery. Thymocytes were obtained by teasing and isolated on Percoll gradient.
# Cell viability was analyzed by DNA content in Flow Cytometry
# Cells exposed to treatments were fixed with ethanol 70%, washed in PBS and stained with propidium iodide (PI) solution containing 10 ug/ml PI in PBS and 25 μl RNAse 10,000 units, overnight in the dark. PI incorporation was evaluated on at least 20,000 cells/sample using a FACS Calibur instrument (Becton Dickinson, Sunnyvale, Calif., USA), with a bandpass filter at 620 nm. Apoptosis was detected by staining with AnnexinV and PI. FACS analysis was performed using a bandpass filter 530 and 620 nm for green (AnnexinV) and red (PI) fluorescence respectively, in combination with a […] dichroic mirror.
# Purified preparations of blood monocytes, lymphocytes and thymocytes were cultured with different concentrations of ecteinascidin 743 for 48 h. […]
smiles,measurement,setting,value
COc1cc2c(cc1O)CCN[C@]21CS[C@@H]2c3c(OC(C)=O)c(C)c4c(c3[C@H](COC1=O)N1[C@@H]2[C@H]2c3c(cc(C)c(OC)c3O)C[C@@H]([C@@H]1O)N2C)OCO4 [ecteinascidin 743],production of TNF by TAM,TNF,never inhibited
same,inhibition at 0.005 µM,CCL2,50%
same,subjects whose monocytes showed decreased macrophage differentiation after treatment,"[1]; of 12 evaluable patients, blood at end of 3-hour infusion",6
same,% inhibition of macrophage differentiation referred to cells before infusion,"[1]; patient UPN 1, CD16",60%
same,"Absolute numbers of marker positive macrophages/10,000 cells, Exposure to ecteinascidin 743","[1]; patient UPN 1, CD16","1248 /10,000 cells"
same,% inhibition of macrophage differentiation referred to cells before infusion,"[1]; patient UPN 1, CD68",45%
same,"Absolute numbers of marker positive macrophages/10,000 cells, Exposure to ecteinascidin 743","[1]; patient UPN 1, CD68","1473 /10,000 cells"
same,% inhibition of macrophage differentiation referred to cells before infusion,"[1]; patient UPN 1, CD206",88%
same,"Absolute numbers of marker positive macrophages/10,000 cells, Exposure to ecteinascidin 743","[1]; patient UPN 1, CD206","550 /10,000 cells"
same,% inhibition of macrophage differentiation referred to cells before infusion,"[1]; patient UPN 2, CD16",60%
same,"Absolute numbers of marker positive macrophages/10,000 cells, Exposure to ecteinascidin 743","[1]; patient UPN 2, CD16","1105 /10,000 cells"
same,% inhibition of macrophage differentiation referred to cells before infusion,"[1]; patient UPN 2, CD68",70%
same,"Absolute numbers of marker positive macrophages/10,000 cells, Exposure to ecteinascidin 743","[1]; patient UPN 2, CD68","1060 /10,000 cells"
same,% inhibition of macrophage differentiation referred to cells before infusion,"[1]; patient UPN 2, CD206",79%
same,"Absolute numbers of marker positive macrophages/10,000 cells, Exposure to ecteinascidin 743","[1]; patient UPN 2, CD206","595 /10,000 cells"
same,% inhibition of macrophage differentiation referred to cells before infusion,"[1]; patient UPN 3, CD68",80%
same,"Absolute numbers of marker positive macrophages/10,000 cells, Exposure to ecteinascidin 743","[1]; patient UPN 3, CD68","632 /10,000 cells"
same,% inhibition of macrophage differentiation referred to cells before infusion,"[1]; patient UPN 3, CD206",87%
same,"Absolute numbers of marker positive macrophages/10,000 cells, Exposure to ecteinascidin 743","[1]; patient UPN 3, CD206","474 /10,000 cells"
same,% inhibition of macrophage differentiation referred to cells before infusion,"[1]; patient UPN 4, CD16",41%
same,"Absolute numbers of marker positive macrophages/10,000 cells, Exposure to ecteinascidin 743","[1]; patient UPN 4, CD16","3050 /10,000 cells"
same,% inhibition of macrophage differentiation referred to cells before infusion,"[1]; patient UPN 4, CD68",55%
same,"Absolute numbers of marker positive macrophages/10,000 cells, Exposure to ecteinascidin 743","[1]; patient UPN 4, CD68","2460 /10,000 cells"
same,% inhibition of macrophage differentiation referred to cells before infusion,"[1]; patient UPN 5, CD16",63%
same,"Absolute numbers of marker positive macrophages/10,000 cells, Exposure to ecteinascidin 743","[1]; patient UPN 5, CD16","594 /10,000 cells"
same,% inhibition of macrophage differentiation referred to cells before infusion,"[1]; patient UPN 5, CD68",50%
same,"Absolute numbers of marker positive macrophages/10,000 cells, Exposure to ecteinascidin 743","[1]; patient UPN 5, CD68","815 /10,000 cells"
same,% inhibition of macrophage differentiation referred to cells before infusion,"[1]; patient UPN 6, CD16",83%
same,"Absolute numbers of marker positive macrophages/10,000 cells, Exposure to ecteinascidin 743","[1]; patient UPN 6, CD16","480 /10,000 cells"
same,% inhibition of macrophage differentiation referred to cells before infusion,"[1]; patient UPN 6, CD68",79%
same,"Absolute numbers of marker positive macrophages/10,000 cells, Exposure to ecteinascidin 743","[1]; patient UPN 6, CD68","505 /10,000 cells"
same,viability of T lymphocytes,T lymphocytes; 5 nM,all alive
same,IC50,"T lymphocytes; Homo sapiens, T-lymphocyte",20 nM
